# According to patent US20230277597A1, “HAPLOIDENTICAL MIXED CHIMERISM FOR TREATING AUTOIMMUNE DISEASES” (CITY OF HOPE, priority 2020, published 2023):
# System: Foxp3^+ Treg cells
# Assay: In vivo Treg depletion with diphtheria toxin in Haplo-MC NOD mice carrying Foxp3^DTR
# Design: species or system mouse
# Details: for mice insulitis free in all the evaluated islets: 3 weeks after first injection
substance,measurement,setting,value
diphtheria toxin [DT],insulitis after depletion of donor-type or host-type Treg cells,"DT every 3 days for 21 days, H-2^b/g7 mixed chimeric NOD mice","significant but moderate recurrence of insulitis, without causing hyperglycemia"
same,reduction of donor-type Treg,"DT every 3 days for 21 days, donor cells carrying Foxp3^DTR",~95%
same,reduction of host-type Treg,"DT every 3 days for 21 days, host cells carrying Foxp3^DTR",~90%
same,mice insulitis free in all the evaluated islets,donor-type Treg depleted chimeric mice,50%
same,mice insulitis free in all the evaluated islets,host-type Treg depleted chimeric mice,33%
